Experimental data as given in publication PMC9452538, “The antimicrobial peptide LI14 combats multidrug-resistant bacterial infections” (Communications Biology, 2022).
Values after ≈ are worked out from the molar mass of the structure shown. Peptide text beside a SMILES is read from it.

Columns and labels:
MRSA 1518 = experiment: microbe, parasite or virus in culture; type: cell-based, Staphylococcus aureus; details: 1518
Procedure, shortened: (§1)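 Standard CLSI broth microdilution (2021 guidelines) in MHB with exponential-phase inoculum.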

E. coli ATCC 25922 [1] = experiment: microbe, parasite or virus in culture; type: cell-based, Escherichia coli; details: ATCC 25922
Procedure, shortened: as §1

[2] = tested on: E. coli B2 (blaNDM-5 + mcr-1); experiment: microbe, parasite or virus in culture; type: cell-based, Escherichia coli; details: B2 (blaNDM-5 + mcr-1)
Procedure, shortened: as §1

A. baumannii ATCC 19609 = experiment: microbe, parasite or virus in culture; type: cell-based, Acinetobacter baumannii; details: ATCC 19609
Procedure, shortened: as §1

[3] = tested on: A. baumannii C222 (tet(X6)); experiment: microbe, parasite or virus in culture; type: cell-based, Acinetobacter baumannii; details: C222 (tet(X6))
Procedure, shortened: as §1

[4] = tested on: S. aureus ATCC 29213, MRSA T144, E. coli ATCC 25922, E. coli B2; experiment: Time-killing assay; type: cell-based; details: MHB
Experimental: Bacteria from the exponential phase were diluted into MHB at 1:1,000, and bacteria suspensions (~10^5 CFUs/mL for Gram-positive bacteria, ~10^6 CFUs/mL for Gram-negative bacteria) were mixed with various concentrations of LI14 peptide and incubated at 37 °C for 0.5, 1, 2, 4, and 12 h, respectively. At intervals, samples were serially diluted ten-fold and plated on MHA plates. The amount of primary CFUs/mL was determined after overnight incubation of bacterial colonies.

E. coli ATCC 25922 [5] = experiment: Resistance development study, serial passages; type: cell-based, Escherichia coli; details: 80 serial passages at sub-inhibitory concentration (0.5-fold MIC)
Experimental: The ability of LI14 peptide to induce resistance was studied as previously described. Resistance to the therapeutically important drugs rifampicin and ciprofloxacin was measured using S. aureus ATCC 29213 and E. coli ATCC 25922 as test strains. The middle and final MICs were monitored after eighty such serial passages exposed to the tested medicines (0.5-fold MIC), and the fold change in MIC increase was recorded.

MRSA T144 persisters = experiment: Bactericidal activity against persisters; type: cell-based, Staphylococcus aureus; details: within 2 h
Experimental: Briefly, the bacteria suspensions after washing were exposed to 50-fold MIC concentrations of vancomycin and tigecycline, respectively, and co-incubation for 4 h to obtain persister cells. […] Subsequently, the primary CFUs/mL were calculated.

E. coli B2 = experiment: Neutropenic mouse thigh infection model; type: in vivo, CD-1 mice; details: 48 h; for Reduction in CFUs in thigh compared with vehicles: n = 6
Experimental: (§2) Female CD-1 mice (n = 6 biologically independent animals per group) were first given cyclophosphamide (two consecutive injections of 150 and 100 mg kg^−1 at 4 and 1 day before infection) to construct neutropenia models. The mice’s right thighs were then injected with 100 μL MRSA T144 or E. coli B2 suspensions (10^5 CFUs per mouse). Post-infection of 1 h, 100 μL LI14 peptide (10 or 20 mg/kg), ampicillin/rifampicin (20 mg/kg) or a combination of LI14 with ampicillin/ rifampicin (10 + 20 mg/kg) were given by intraperitoneal injection. All mice were euthanized 48 h after drug administration, and right thigh muscle tissue was removed aseptically, homogenized, serially diluted, and plated on MHA to qualify bacterial loads after overnight incubation at 37 °C.

MRSA T144 = experiment: Neutropenic mouse thigh infection model; type: in vivo, CD-1 mice; details: 48 h; for Reduction in CFUs in thigh compared with vehicles: n = 6
Experimental: as §2

MRSA T144 or E. coli B2 = experiment: Rat skin wound infection model; type: in vivo, rats; details: MRSA T144 or E. coli B2 infected skin wound; LI14 5 or 10 μg topically; 8 days; n = 4
Experimental: The rats (n = 4 biologically independent animals per group) were anesthetized and a 2 cm wound model was constructed on their back. Then, 100 μL of MRSA T144 or E. coli B2 cultures were dropped on the wounds (10^6 CFUs per mouse), respectively. At 1 h post-infection, 100 μL of LI14 peptide (5 or 10 μg), or the combination of LI14 peptide with ampicillin/rifampicin (5 + 5 μg) were gently inoculated over the scar with a pipette tip, respectively. Wound size was recorded for 8 days, and on the 8th day, the rats were euthanized, and wound tissue was removed aseptically to measure CFUs and for following hematoxylin and eosin (H&E) staining.
(a-d) Mouse skin wound infection models by MRSA T144 (n = 4 biologically independent animals per group). a Photographs of wounds treated with LI14 (5 μg and 10 μg) or in combination with ampicillin (5 + 5 μg) for 0, 4 and 8 days (scale bar, 1 cm). (b) The wound size at 0th, 4th and 8th day after infection by MRSA T144. (c) The subeschar bacterial colonies at 8th day. (d) H.E. staining for the histological change of skin wound at 8th day (scale bar, […]
(e-h) Mouse skin wound infection models by E. coli B2 (n = 4 biologically independent animals per group). (e) Photographs of wounds treated with LI14 (5 μg and 10 μg) or in combination with rifampicin for (5 + 5 μg) for 0, 4 and 8 days (scale bar, 1 cm). […]

CC[C@H](C)[C@H](NC(=O)[C@H](CCCNC(=N)N)NC(=O)[C@H](CS)NC(=O)[C@H](CC(C)C)NC(=O)[C@H](CCCCN)NC(=O)[C@H](CCCCN)NC(=O)[C@H](CC(C)C)NC(=O)[C@@H](NC(=O)[C@H](CCCNC(=N)N)NC(=O)[C@H](CS)NC(=O)[C@H](CC(C)C)NC(=O)[C@H](CCCCN)NC(=O)[C@H](CCCCN)NC(=O)[C@@H](N)CC(C)C)[C@@H](C)CC)C(N)=O [LI14] (H-LKKLCRILKKLCRI-NH2)
MIC (MRSA 1518): 64 µg/mL (≈ 37.1 µM) | MIC (E. coli ATCC 25922 [1]): 8 µg/mL (≈ 4.63 µM) | MIC [2]: 4 µg/mL | MIC (A. baumannii ATCC 19609): 8 µg/mL (≈ 4.63 µM) | MIC [3]: 16 µg/mL (≈ 9.26 µM) | Killing of the tested strains at 12 h ([4]; 8 μg/mL LI14, three tested strains, except for MRSA T144): completely eliminate | Time to eliminate all E. coli strains ([4]; 32 μg/mL LI14, ~10^6 CFUs/mL, 37 °C): ≤ 0.5 h | Increase in MIC after serial passages (E. coli ATCC 25922 [5]): 8 fold | Clearance rate against persisters (MRSA T144 persisters): above 99% | Bacterial load in thigh (E. coli B2; LI14 10 mg/kg i.p., animal 1): 5.99 Log10CFUs/thigh | Bacterial load in thigh (E. coli B2; LI14 10 mg/kg i.p., animal 2): 5.91 Log10CFUs/thigh | Bacterial load in thigh (E. coli B2; LI14 10 mg/kg i.p., animal 3): 6.58 Log10CFUs/thigh | Bacterial load in thigh (E. coli B2; LI14 10 mg/kg i.p., animal 4): 6.66 Log10CFUs/thigh | Bacterial load in thigh (E. coli B2; LI14 10 mg/kg i.p., animal 5): 7.36 Log10CFUs/thigh | Bacterial load in thigh (E. coli B2; LI14 10 mg/kg i.p., animal 6): 7.31 Log10CFUs/thigh | Reduction in CFUs in thigh compared with vehicles (E. coli B2; LI14 10 mg/kg i.p.): ~ 2 log10 | Bacterial load in thigh (E. coli B2; LI14 20 mg/kg i.p., animal 1): 4.93 Log10CFUs/thigh | Bacterial load in thigh (E. coli B2; LI14 20 mg/kg i.p., animal 2): 4.99 Log10CFUs/thigh | Bacterial load in thigh (E. coli B2; LI14 20 mg/kg i.p., animal 3): 4.71 Log10CFUs/thigh | Bacterial load in thigh (E. coli B2; LI14 20 mg/kg i.p., animal 4): 4.79 Log10CFUs/thigh | Bacterial load in thigh (E. coli B2; LI14 20 mg/kg i.p., animal 5): 5.69 Log10CFUs/thigh | Bacterial load in thigh (E. coli B2; LI14 20 mg/kg i.p., animal 6): 5.66 Log10CFUs/thigh | Reduction in CFUs in thigh compared with vehicles (E. coli B2; LI14 20 mg/kg i.p.): 4 log10 | Bacterial load in thigh (MRSA T144; LI14 10 mg/kg i.p., animal 1): 6.18 Log10CFUs/thigh | Bacterial load in thigh (MRSA T144; LI14 10 mg/kg i.p., animal 2): 6.30 Log10CFUs/thigh | Bacterial load in thigh (MRSA T144; LI14 10 mg/kg i.p., animal 3): 5.92 Log10CFUs/thigh | Bacterial load in thigh (MRSA T144; LI14 10 mg/kg i.p., animal 4): 5.83 Log10CFUs/thigh | Bacterial load in thigh (MRSA T144; LI14 10 mg/kg i.p., animal 5): 7.15 Log10CFUs/thigh | Bacterial load in thigh (MRSA T144; LI14 10 mg/kg i.p., animal 6): 7.28 Log10CFUs/thigh | Reduction in CFUs in thigh compared with vehicles (MRSA T144; LI14 10 mg/kg i.p.): ~ 2 log10 | Bacterial load in thigh (MRSA T144; LI14 20 mg/kg i.p., animal 1): 4.32 Log10CFUs/thigh | Bacterial load in thigh (MRSA T144; LI14 20 mg/kg i.p., animal 2): 4.36 Log10CFUs/thigh | Bacterial load in thigh (MRSA T144; LI14 20 mg/kg i.p., animal 3): 4.77 Log10CFUs/thigh | Bacterial load in thigh (MRSA T144; LI14 20 mg/kg i.p., animal 4): 4.61 Log10CFUs/thigh | Bacterial load in thigh (MRSA T144; LI14 20 mg/kg i.p., animal 5): 5.45 Log10CFUs/thigh | Bacterial load in thigh (MRSA T144; LI14 20 mg/kg i.p., animal 6): 5.51 Log10CFUs/thigh | Reduction in CFUs in thigh compared with vehicles (MRSA T144; LI14 20 mg/kg i.p.): 4 log10 | Wound closure and number of colonies (MRSA T144 or E. coli B2): distinctly improved wound closure and decreased the number of colonies
